In patent US11918565B1, “Treatment of post-operative pain via sciatic nerve block with sustained-release liposomal anesthetic compositions” (Pacira Pharmaceuticals, Inc., priority 2022, dated 2024):
Counter-ions that a name gives are not always drawn.

Key:
[1] = system: subjects undergoing bunionectomy (postsurgical pain, operative foot); assay: NRS pain intensity scores after sciatic (popliteal fossa) nerve block, Phase 3 clinical trial #1; format: in vivo, human
Method: Clinical Study #1 was a Phase 3, multicenter, randomized, double-blind, active-controlled study in 180 subjects undergoing bunionectomy. Subjects received a sciatic (in the popliteal fossa) nerve block with a single dose of either […] 266 mg ([…] 133 mg (EXP133), or 0.25% bupivacaine HCl (50 mg; BUP50). The study was conducted in two parts (Part A and Part B). Part A was to be completed and analyzed before enrollment in Part B was initiated. Part A was a 3-arm cohort with 66 subjects undergoing bunionectomy to obtain information on pharmacokinetics (PK), pharmacodynamics (PD), efficacy, and safety. Subjects were randomized (1:1:1) to the EXP266, EXP133, and BUP50 treatment arms. Part B was a 2-arm cohort with 119 subjects undergoing bunionectomy to evaluate the efficacy and safety of […] compared with bupivacaine HCl. The dose of the […] arm in Part B was determined based on the interim analysis of the Part A cohort results. […] An unscheduled pain intensity assessment using the NRS (measured as “On a scale from 0 to 10, where 0 equals no pain and 10 equals the worst possible pain, how much pain are you experiencing in your operative foot right now?”) was to be completed immediately prior to administration of any breakthrough pain medication up to 96 h post-surgery. Medications were administered PRN; opioids were not to be given on a pre-determined schedule. […] All postsurgical analgesics administered, were to be recorded through hospital discharge. […]

[2] = system: subjects undergoing bunionectomy; assay: Safety: treatment-emergent adverse events, SAEs, AESIs, vital signs, EKG through POD14, clinical trial #1; format: in vivo, human
Text: Safety assessments included monitoring of AEs from the time of randomization through POD 14. Safety endpoints include incidence of treatment-emergent AEs and SAEs from the start of the nerve block procedure through POD 14.
Safety endpoints included incidence of treatment emergent adverse events (AEs) and serious adverse events (SAEs) from start of the nerve block procedure through POD14.
Adverse event verbatim terms are mapped to preferred terms and related system organ class using the Medical Dictionary for Regulatory Activities (MedDRA). Events that start prior to the start of study drug administration are identified in a by-subject listings. Incidence rates of TEAEs and the proportion of subject prematurely withdrawn from the study due to a TEAE is shown for each treatment arm. […] Incidence rates of SAEs is shown for each treatment arm.
An AE that occurred after administration of the study treatment was considered a treatment-emergent adverse event (TEAE). A continuous AE with varying grades of severity was to be recorded as 1 AE. The highest grade of severity experienced by that subject during the course of the continuous AE was to be recorded.
General guidelines are provided below: • Unrelated: A causal relationship between the study drug and the AE could be easily ruled out (e.g., based on the temporal sequence, absence of a reasonable pathophysiological mechanism, or direct evidence of actual cause). • Unlikely: A clinical event with a temporal relationship to study drug administration that made a causal relationship improbable and in which other drugs, chemicals, or underlying disease provided a plausible explanation. • Possible: A clinical event with a reasonable time sequence to administration of the study drug but that could also be explained by a concurrent disease or other drugs or chemicals. • Probable: A clinical event with a reasonable time sequence to administration of the study drug unlikely to be attributed to a concurrent disease or other drugs or chemicals and that followed a clinically reasonable response on withdrawal (dechallenge). • Definite: The pharmacological properties of the study drug(s) or of the substance class, and the course of the AE after dechallenge and, if applicable, after rechallenge, and/or specific test indicated involvement of the study drug(s) in the occurrence/worsening of the AE, and no indication of other causes existed.
Based on review of all peripheral nerve blocks, the following conditions were considered to be Adverse Events of Special Interest (AESIs) upon review of the AEs: • Falls • Persistent tingling • Persistent numbness • Persistent weakness • Hypersensitivity • Seizures • Tremors • Dizziness • Hematoma formation • Cardiovascular depression • Dyspnea • Cardiovascular arrest • Altered sensorium • Visual disturbances • Local anesthetic systemic toxicity
However, death, in and of itself, was not an AE; it was an outcome. The cause of death was the AE.

[3] = EXP266 Part A, EXP133 and BUP50 Part A+B

## CCCCN1CCCCC1C(=O)Nc1c(C)cccc1C (stereo not drawn) [BUP50, bupivacaine HCl]
[1]; [3]
  mean AUC of average pain over the last 24 h post-surgery from POD1 through POD4: 16.1
  mean AUC of worst pain over the last 24 h post-surgery from POD1 through POD4: 25.2
[1]; post-surgery
  time post-surgery at which mean current pain intensity peaked: 36 h
[2]; EXP133 on POD2, BUP50 on POD1
  subjects with a clinically significant abnormal EKG finding: 1 subject
[2]; EXP266: hypertension and pyrexia, BUP50: atrioventricular block second degree, both discontinued
  subjects with treatment-emergent SAEs related to study drug: 1 subject
[2]; [3]
  proportion of subjects with a treatment-related TEAE: 2.4%
[2]; EXPAREL (266 mg), bupivacaine HCl
  subjects that had SAEs: 1 subject
[2]; human, in vivo
  AESI of atrioventricular block second degree considered possibly related to study drug: 1 subject
  AESI of muscular weakness considered possibly related to study drug: 1 subject
  TEAE constipation, subjects: 31.7%
  TEAE nausea, subjects: 23.2%
  number of subjects with ≥1 TEAE related to study drug: 2 subjects
  subjects who had ≥1 AESI: 4 subjects
  subjects with a moderate TEAE: 12.2%
[2]; through POD14
  proportion of subjects who reported TEAEs: 54.9%
